Assay results as given in patent publication US8680272B2, “3-arylethynyl substituted quinazolinone compounds” (Council of Scientific & Industrial Research, priority 2011, dated 2014).

Tests used:
[1] = test system: seven ovarian cancer cell lines (IGROV1, OVCAR-3, OVCAR-4, OVCAR-5, OVCAR-8, NCI/ADR-RES and SK-OV-3); experiment: Anticancer activity, SRB assay, ovarian panel; format: cell-based, human; conditions: for GI50: Homo sapiens, seven ovarian cancer cell lines, exposure period of at least 48 h, read-out: GI50 (range over the panel); for mean graph midpoint values (MG_MID) of log10 TGI (Log10TGI50) / mean graph midpoint values (MG_MID) of Log10LC50 / mean graph midpoint values (MG_MID) of Log10GI50: Ovarian; for mean graph midpoint values (MG_MID) of log10 TGI (Log10TGI50): log value of concentration of the compound resulting in total inhibition of net cell growth; for mean graph midpoint values (MG_MID) of Log10LC50: log value of the concentration of compounds leading to 50% net cell death; for mean graph midpoint values (MG_MID) of Log10GI50: log values of concentration in mol/L causing 50% inhibition of net cell growth
Protocol: (§1) Some of biological activity studies were carried out at the National Cancer Institute (NCI), Maryland, USA.
(§2) The compounds were evaluated for anticancer activity against sixty human cancer cells derived from nine cancer types (leukemia cell line, non-small-cell lung cell line, colon cell line, CNS cell line, melanoma cell line, ovarian cell line, prostate cell line, renal cell line and breast cancer cell line) as shown in Table 1. For each compound, dose response curves for each cell line were measured at a minimum of five concentrations at 10 fold dilutions. A protocol of 48 h continuous drug exposure was used and a sulforhodamine B (SRB) protein assay was used to estimate cell viability or growth.

K-562 = experiment: Anticancer activity, SRB assay, leukemia cell line K-562; format: cell-based; conditions: Homo sapiens, K562; Leukemia K-562; 48 h continuous drug exposure; read-out: Growth Inhibition GI50
Protocol: as §1, §2

MCF7 = experiment: Anticancer activity, SRB assay, breast cell line MCF7; format: cell-based; conditions: Homo sapiens, 48 h continuous drug exposure, read-out: Growth Inhibition GI50
Protocol: as §1, §2

LOX IMVI = experiment: Anticancer activity, SRB assay, melanoma cell line LOX IMVI; format: cell-based; conditions: Homo sapiens, 48 h continuous drug exposure, read-out: Growth Inhibition GI50
Protocol: as §1, §2

UACC-62 = experiment: Anticancer activity, SRB assay, melanoma cell line UACC-62; format: cell-based; conditions: Homo sapiens; Melanoma UACC-62; 48 h continuous drug exposure; read-out: Growth Inhibition GI50
Protocol: as §1, §2

IGROV1 = experiment: Anticancer activity, SRB assay, ovarian cell line IGROV1; format: cell-based, human; conditions: —^b means GI50 values not attained at the concentrations used
Protocol: as §1, §2

HT29 = experiment: Anticancer activity, SRB assay, colon cell line HT29; format: cell-based; conditions: Homo sapiens, HT-29, 48 h continuous drug exposure, read-out: Growth Inhibition GI50
Protocol: as §1, §2

HOP-92 = experiment: Anticancer activity, SRB assay, non-small lung cell line HOP-92; format: cell-based, human; conditions: Non-small lung HOP-92, 48 h continuous drug exposure, —^b means GI50 values not attained at the concentrations used
Protocol: as §1, §2

T-47D = experiment: Anticancer activity, SRB assay, breast cell line T-47D; format: cell-based, human; conditions: Breast T-47D, 48 h continuous drug exposure, —^b means GI50 values not attained at the concentrations used
Protocol: as §1, §2

[2] = Anticancer activity, SRB assay, non-small cell lung panel; format: cell-based, human; conditions: Homo sapiens; nine non-small cell lung cancer cell lines; exposure period of at least 48 h; read-out: GI50 (range over the panel)
Protocol: as §1, §2

[3] = test system: nine non-small cell lung cancer cell lines (A549/ATCC, EKVX, HOP-62, HOP-92, NCI-H226, NCI-H23, NCI-H322M, NCI-H460 and NCI-H522); experiment: as above; format: cell-based, human; conditions: Non-small cell lung; for mean graph midpoint values (MG_MID) of log10 TGI (Log10TGI50): log value of concentration of the compound resulting in total inhibition of net cell growth; for mean graph midpoint values (MG_MID) of Log10LC50: log value of the concentration of compounds leading to 50% net cell death; for mean graph midpoint values (MG_MID) of Log10GI50: log values of concentration in mol/L causing 50% inhibition of net cell growth
Protocol: as §1, §2

SF-539 = experiment: Anticancer activity, SRB assay, CNS cell line SF-539; format: cell-based, human; conditions: CNS SF-539, 48 h continuous drug exposure, —^b means GI50 values not attained at the concentrations used
Protocol: as §1, §2

NCI-H23 = experiment: Anticancer activity, SRB assay, non-small lung cell line NCI-H23; format: cell-based; conditions: Homo sapiens, Non-small lung NCl-H23, 48 h continuous drug exposure, read-out: Growth Inhibition GI50
Protocol: as §1, §2

[4] = test system: sixty human cancer cell lines derived from nine cancer types; experiment: Anticancer activity against sixty human cancer cell lines; format: cell-based
Protocol: as §1, §2

DU-145 = experiment: Anticancer activity, SRB assay, prostate cell line DU-145; format: cell-based, human; conditions: Prostate DU-145, 48 h continuous drug exposure, —^b means GI50 values not attained at the concentrations used
Protocol: as §1, §2

NCI-H460 = experiment: Anticancer activity, SRB assay, non-small lung cell line NCI-H460; format: cell-based; conditions: Homo sapiens, Non-small lung NCl-H460, 48 h continuous drug exposure, read-out: Growth Inhibition GI50
Protocol: as §1, §2

HL-60(TB) = experiment: Anticancer activity, SRB assay, leukemia cell line HL-60(TB); format: cell-based; conditions: Homo sapiens; Leukemia HL-60(TB); 48 h continuous drug exposure; read-out: Growth Inhibition GI50
Protocol: as §1, §2

SN12C = experiment: Anticancer activity, SRB assay, renal cell line SN12C; format: cell-based, human; conditions: 48 h continuous drug exposure, —^b means GI50 values not attained at the concentrations used
Protocol: as §1, §2

[5] = test system: eight renal cancer cell line (786-0, A498, ACHN, CAKI-1, SN12C, TK-10, UO-31 and RXF 393); experiment: Anticancer activity, SRB assay, renal panel; format: cell-based, human; set-up: mean graph midpoint values (MG_MID) of Log10LC50 / mean graph midpoint values (MG_MID) of log10 TGI (Log10TGI50): unit not given here; conditions: for GI50: Homo sapiens, eight renal cancer cell line, exposure period of at least 48 h, read-out: in vitro anticancer activity (range over the panel); for mean graph midpoint values (MG_MID) of log10 TGI (Log10TGI50) / mean graph midpoint values (MG_MID) of Log10LC50 / mean graph midpoint values (MG_MID) of Log10GI50: Renal; for mean graph midpoint values (MG_MID) of log10 TGI (Log10TGI50): log value of concentration of the compound resulting in total inhibition of net cell growth; for mean graph midpoint values (MG_MID) of Log10LC50: log value of the concentration of compounds leading to 50% net cell death; for mean graph midpoint values (MG_MID) of Log10GI50: log values of concentration in mol/L causing 50% inhibition of net cell growth
Protocol: as §1, §2

NCI-H322M = experiment: Anticancer activity, SRB assay, non-small lung cell line NCI-H322M; format: cell-based, human; conditions: Non-small lung NCl-H322M, 48 h continuous drug exposure, —^b means GI50 values not attained at the concentrations used
Protocol: as §1, §2

SF-295 = experiment: Anticancer activity, SRB assay, CNS cell line SF-295; format: cell-based, human; conditions: CNS SF-295, 48 h continuous drug exposure, —^b means GI50 values not attained at the concentrations used
Protocol: as §1, §2

NCI-H522 = experiment: Anticancer activity, SRB assay, non-small lung cell line NCI-H522; format: cell-based, human; conditions: Non-small lung NCl-H522, 48 h continuous drug exposure, —^b means GI50 values not attained at the concentrations used
Protocol: as §1, §2

U251 = experiment: Anticancer activity, SRB assay, CNS cell line U251; format: cell-based; conditions: Homo sapiens, U-251, 48 h continuous drug exposure, read-out: Growth Inhibition GI50
Protocol: as §1, §2

[6] = test system: six CNS cancer cell line (SF-268, SF-295, SF-539, SNB-19, SNB-75 and U251); experiment: Anticancer activity, SRB assay, CNS panel; format: cell-based, human; conditions: for mean graph midpoint values (MG_MID) of log10 TGI (Log10TGI50) / mean graph midpoint values (MG_MID) of Log10LC50 / mean graph midpoint values (MG_MID) of Log10GI50: CNS; for mean graph midpoint values (MG_MID) of log10 TGI (Log10TGI50): log value of concentration of the compound resulting in total inhibition of net cell growth; for mean graph midpoint values (MG_MID) of Log10LC50: log value of the concentration of compounds leading to 50% net cell death; for mean graph midpoint values (MG_MID) of Log10GI50: log values of concentration in mol/L causing 50% inhibition of net cell growth; for GI50: Homo sapiens, six CNS cancer cell line, exposure period of at least 48 h, read-out: GI50 (range over the panel)
Protocol: as §1, §2

SK-MEL-5 = experiment: Anticancer activity, SRB assay, melanoma cell line SK-MEL-5; format: cell-based; conditions: Homo sapiens; Melanoma SK-MEL-5; 48 h continuous drug exposure; read-out: Growth Inhibition GI50
Protocol: as §1, §2

[7] = Homo sapiens, read-out: Growth Inhibition GI50

| Structure (SMILES) | GI50 [1] [nM] | mean graph midpoint values (MG_MID) of log10 TGI (Log10TGI50) [1] | mean graph midpoint values (MG_MID) of Log10LC50 [1] | mean graph midpoint values (MG_MID) of Log10GI50 [1] [mol/L] | GI50 (K-562) [nM] | GI50 (MCF7) [nM] | GI50 (LOX IMVI) [nM] | GI50 (UACC-62) [nM] | GI50 (HT29) [nM] | GI50 [2] [nM] | mean graph midpoint values (MG_MID) of log10 TGI (Log10TGI50) [3] | mean graph midpoint values (MG_MID) of Log10LC50 [3] | mean graph midpoint values (MG_MID) of Log10GI50 [3] [mol/L] | GI50 (NCI-H23) [nM] | in vitro anticancer activity (in words) [4] | GI50 (NCI-H460) [nM] | GI50 (HL-60(TB)) [nM] | GI50 [5] [nM] | mean graph midpoint values (MG_MID) of log10 TGI (Log10TGI50) [5] | mean graph midpoint values (MG_MID) of Log10LC50 [5] | further results |
| --- | --- | --- | --- | --- | --- | --- | --- | --- | --- | --- | --- | --- | --- | --- | --- | --- | --- | --- | --- | --- | --- |
| Cc1cc(C#Cc2ccccc2)ccc1-n1c(/C=C/c2cc(O)ccc2O)nc2ccccc2c1=O [Compound 4c, (E)-2-(2,5-Dihydroxystyryl)-3-(2-methyl-4-(phenylethynyl)phenyl)quinazolin-4(3H)-one] | 1390 to 2450 | −5.31 | −4.61 | −5.72 | 1420 | 1450 | 1370 | 1520 | 1950 | 1240 to 1710 | −5.44 | −4.91 | −5.83 | 1480 | exhibiting an in vitro anticancer activity | 1570 | 634 | 370 to 2150 | −5.43 | −4.93 | GI50 (IGROV1; Homo sapiens, IGROV-1, 48 h continuous drug exposure, read-out: Growth Inhibition GI50): 2450 nM; GI50 (HOP-92; [7]): 1540 nM; GI50 (T-47D; Homo sapiens, T47D, read-out: Growth Inhibition GI50): 1140 nM; GI50 (SF-539; [7]): 1600 nM; GI50 (DU-145; [7]): 419 nM; GI50 (SN12C; [7]): 1620 nM; mean graph midpoint values (MG_MID) of Log10GI50 [5]: −5.86 mol/L; GI50 (NCI-H322M; Homo sapiens, NCI-H322M, read-out: Growth Inhibition GI50): 1620 nM; GI50 (SF-295; [7]): 1350 nM; GI50 (NCI-H522; Homo sapiens, NCI-H522, read-out: Growth Inhibition GI50): 1290 nM; GI50 (U251): 1450 nM; mean graph midpoint values (MG_MID) of log10 TGI (Log10TGI50) [6]: −5.50; mean graph midpoint values (MG_MID) of Log10LC50 [6]: −5.15; mean graph midpoint values (MG_MID) of Log10GI50 [6]: −5.85 mol/L; GI50 [6]: 1300 to 1620 nM; GI50 (SK-MEL-5): 1350 nM |
| COc1ccc2cc(C#Cc3ccc(-n4c(/C=C/c5cc(OC)c(OC)c(OC)c5)nc5ccccc5c4=O)c(C)c3)ccc2c1 [Compound 6l, (E)-3-(4-((6-Methoxynaphthalen-2-yl)ethynyl)-2-methylphenyl)-2-(3,4,5-trimethoxystyryl)quinazolin-4(3H)-one] | 19300 | >−4.00 | >−4.00 | −4.10 | 882 | 63800 | 5960 | 2190 | 3410 | 2480 to 40500 | >−4.00 | >−4.00 | −4.32 | 40500 | exhibiting an in vitro anticancer activity | 2480 | 686 | 4910 | >−4.00 | >−4.00 | Growth Inhibition GI50 (IGROV1; 48 h continuous drug exposure): —^b; Growth Inhibition GI50 (HOP-92): —^b; Growth Inhibition GI50 (T-47D): —^b; Growth Inhibition GI50 (SF-539): —^b; Growth Inhibition GI50 (DU-145): —^b; Growth Inhibition GI50 (SN12C): —^b; mean graph midpoint values (MG_MID) of Log10GI50 [5]: −4.16 mol/L; Growth Inhibition GI50 (NCI-H322M): —^b; Growth Inhibition GI50 (SF-295): —^b; Growth Inhibition GI50 (NCI-H522): —^b; GI50 (U251): 7400 nM; mean graph midpoint values (MG_MID) of log10 TGI (Log10TGI50) [6]: >−4.00; mean graph midpoint values (MG_MID) of Log10LC50 [6]: >−4.00; mean graph midpoint values (MG_MID) of Log10GI50 [6]: −4.18 mol/L; GI50 [6]: 7400 nM; GI50 (SK-MEL-5): 1850 nM |
